Test results as given in publication PMC5431875, “In situ click chemistry generation of cyclooxygenase-2 inhibitors” (Nature Communications, 2017).

Tests used:
Stability in rat serum = format: in vitro ADME; settings: 37 °C, up to 30 h
pure human COX-2 protein = biological target: T1, pure human COX-2 protein (Homo sapiens, UniProt P35354); test: Isothermal titration calorimetry; format: binding; settings: ITC
T1 sequence (P35354 18-604): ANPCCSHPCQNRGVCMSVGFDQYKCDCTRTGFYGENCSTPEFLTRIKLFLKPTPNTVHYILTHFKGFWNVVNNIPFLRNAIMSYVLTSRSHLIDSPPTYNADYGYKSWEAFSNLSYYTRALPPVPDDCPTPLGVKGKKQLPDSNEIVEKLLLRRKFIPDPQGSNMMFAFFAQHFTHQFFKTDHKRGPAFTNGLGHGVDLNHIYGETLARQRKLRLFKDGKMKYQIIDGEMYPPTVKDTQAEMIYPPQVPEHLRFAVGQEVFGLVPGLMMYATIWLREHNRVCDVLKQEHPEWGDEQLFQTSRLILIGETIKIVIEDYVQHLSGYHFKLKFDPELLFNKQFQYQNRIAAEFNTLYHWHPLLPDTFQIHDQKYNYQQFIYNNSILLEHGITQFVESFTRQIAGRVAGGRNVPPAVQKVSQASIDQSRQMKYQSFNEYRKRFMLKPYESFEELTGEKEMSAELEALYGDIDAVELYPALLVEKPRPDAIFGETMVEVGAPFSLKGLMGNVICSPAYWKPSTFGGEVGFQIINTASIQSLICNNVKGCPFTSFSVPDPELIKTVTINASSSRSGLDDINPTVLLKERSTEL
Procedure: The thermodynamics of the precursor 5-azido-pyrazole (14) binding with pure human COX-2 protein studied with a high sensitivity ITC instrument (VP-ITC, MicroCal). All titrations were performed by following VP-ITC general procedure described in manual. Protein (20 µM) and ligand (200 µM) solution were prepared in PBS buffer, pH 7.4. Prior to each ITC run, all solutions were filtered using membrane filters (pore size 0.45 μm) and thoroughly stirred and degassed using Thermovac accessory for 20 min to remove any air bubbles at 25 °C. In a typical experiment, aliquots (6 µl) of ligand solution (prepared at 10 times the COX-2 protein concentration) were injected with a computer-controlled stirrer-syringe into a reaction cell containing COX-2 protein. Titrations were carried out with a stirring speed of 400 rpm and 240 s intervals between injections. All experiments were conducted at 25 °C. Control experiments, including titration of the ligand into buffer alone or COX-2 protein into buffer alone, were carried to determine the heat due to dilution and subtracting during the original experiment. Calorimetric data analysis was performed with ORIGIN software provided by MicroCal. All results, including the binding constant (K a), stoichiometry of binding (N), and thermodynamics of binding (ΔH and TΔS) were determined by fitting the experimental binding isotherms.

recombinant human COX-2 = biological target: T2, recombinant human COX-2 (Homo sapiens, UniProt P35354); test: COX inhibitor assay (Cayman 700100), COX-2
T2 sequence (P35354 18-604): T1 sequence (P35354 18-604)
Procedure: (§1) Each compound was assayed in concentration range of 10^−9 M to 10^−3 M, in triplicate. PRISM5 software was used to calculate IC50 values.

COX-2 in HCA-7 cells = biological target: T3, COX-2 in HCA-7 cells (Homo sapiens, UniProt P35354); test: Cellular COX-2 inhibitory activity (PGE2 ELISA) in HCA-7 cells; format: cell-based; settings: mean of three determinations, read-out: Cell COX-2 IC50
T3 construct: endogenous in cells; host or cells: HCA-7
T3 sequence (P35354 18-604): T1 sequence (P35354 18-604)
Procedure: Based on the in vitro COX-2 inhibitory data, seventeen compounds (Table 2) were selected and further evaluated for their cellular COX-2 inhibitory activity in COX-2 expressing colorectal cancer cell line HCA-7. […]
HCA-7 cells (colorectal cancer cell line, COX-2 expression is confirmed with immunoblotting). The HCA-7 cells were cultured in T75 flasks using DMEM/F12 (1:1) medium supplemented with 10% (v/v) fetal bovine […]
were washed three times for 5 min with 1 ml PBS. Cells were negatively tested for mycoplasma contamination either by the vendor or in house. […]
vehicle (solvent) at concentration range of 10−9 M to 10−3 M. After 30 min incubation the reaction was stopped on ice and supernatants were taken and COX-2 mediated production of PGE2 was immediately determined […]
concentration is quantified by following manufacturer assay procedure. All experiments were done three times and ±s.e.m. were calculated.
The PRISM5 software was used to calculate IC50 values.

ovine COX-1 = biological target: T4, ovine COX-1 (Ovis aries, UniProt P05979); test: COX inhibitor assay (Cayman 700100), COX-1
T4 sequence (P05979 25-600): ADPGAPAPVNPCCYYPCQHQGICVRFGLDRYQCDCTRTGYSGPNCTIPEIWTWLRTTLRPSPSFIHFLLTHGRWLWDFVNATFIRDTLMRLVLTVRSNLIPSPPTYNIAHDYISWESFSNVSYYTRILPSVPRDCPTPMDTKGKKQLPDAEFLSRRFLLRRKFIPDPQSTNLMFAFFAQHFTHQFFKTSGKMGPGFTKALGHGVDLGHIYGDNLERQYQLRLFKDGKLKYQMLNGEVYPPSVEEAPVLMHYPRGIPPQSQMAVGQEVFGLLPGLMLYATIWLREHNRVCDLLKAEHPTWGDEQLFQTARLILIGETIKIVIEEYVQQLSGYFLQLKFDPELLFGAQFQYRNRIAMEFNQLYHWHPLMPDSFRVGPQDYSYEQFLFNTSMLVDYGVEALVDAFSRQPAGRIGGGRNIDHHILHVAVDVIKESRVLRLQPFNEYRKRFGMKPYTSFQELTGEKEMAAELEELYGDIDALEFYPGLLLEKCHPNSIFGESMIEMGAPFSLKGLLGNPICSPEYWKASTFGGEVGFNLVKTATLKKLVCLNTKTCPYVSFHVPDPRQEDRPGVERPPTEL
Procedure: as §1

Stability in human serum = format: in vitro ADME; settings: 37 °C, up to 30 h
Procedure: Stock solutions of compounds 5, 14, 18 and 21 (10 mM) were prepared in DMSO for molecular biology. A Solution of each compound (10 mM) was added to freshly thaw human serum (from human male AB plasma, USA origin, sterile-filtered, Sigma– Aldrich) at 37 °C; the final concentration of the compound was 100 µM. The resulting solution was incubated at 37 °C and at various time intervals (0 to 30 h) 200 µL reaction mixture samples was taken and added to 200 µL of acetonitrile containing 0.1% trifluoroacetic acid in order to deproteinize the proteins. Into each sample mixture, 10 μL of an internal standard solution (2 mM solution in methanol) was added. Sample mixture was sonicated, vortexed and then centrifuged for 15 min. at 2150 × g. The clear supernatant was transferred into the fresh tube for LCMS analysis, with a similar method described for the in situ click LC-MS studies. […]

Stability in rat serum (Stability in rat serum): no significant degradation
Enthalpy change, ΔH (pure human COX-2 protein; 298.15 K): -8.248 kcal/mol
Entropy change, TΔS (pure human COX-2 protein; 298.15 K): 0.404 kcal/mol
Free energy change, ΔG (pure human COX-2 protein; 298.15 K): -8.652 kcal/mol
Binding stoichiometry, N (pure human COX-2 protein; PBS pH 7.4, 25 °C): 1.02 ± 0.0259
melting point: 131 to 133 °C
IC50 (recombinant human COX-2): 4.4 µM
COX-2 SI (selectivity index) (recombinant human COX-2; (COX-1 IC50)/(COX-2 IC50)): >22.7
IC50 (COX-2 in HCA-7 cells): 10 µM
IC50 (ovine COX-1): > 100 µM
Stability in human serum (Stability in human serum): no significant degradation
Structure (SMILES): Cc1cc(N=[N+]=[N-])n(-c2ccc(S(C)(=O)=O)cc2)n1 [Compound 14, 5-azido-1-(4-methanesulfonyl-phenyl)-3-methyl-1H-pyrazole]
